Assay results from paper PMC3588144 (Molecular cancer therapeutics, 2012).

Tests used:
436 cancer cell lines = assay type: cell-based, human
MV4-11 cells (FLT3-ITD) = assay type: cell-based, human; details: 100 nmol/L for 3 hours
[1] = tolerability / maximum-tolerated dose; assay type: in vivo, mice; details: for maximum observed body weight loss: 14 days, male Balb/C nude mice
[2] = pharmacokinetics after a single oral dose; design: species or system mice; details: mouse, in vivo
[3] = test system: pS6 and pAkt in COLO-205 tumor tissue; assay: pharmacodynamic markers in COLO-205 tumors; assay type: in vivo, mice; details: 25 mg/kg, 1h after the last dose on day 17
[4] = test system: pAkt(S473) and pS6(S240/244) in PC3 tumor tissue; details: mouse, in vivo
NCI-N87 xenograft = assay: HER2 overexpressing gastric NCI-N87 xenograft model; details: 25 mg/kg i.v.; not statistically significant

With `CN(C)C/C=C/C(=O)Nc1cc2c(Nc3ccc(F)c(Cl)c3)ncnc2cc1O[C@H]1CCOC1` [BIBW2992] as the molecule, how does the “sensitivity of ERBB2-amplified cells with coincident PIK3CA mutations” value (436 cancer cell lines) read?
Its value is “did not observe increased sensitivity”.

Which “inhibition of phosphorylation of Akt” value (MV4-11 cells (FLT3-ITD)) does the source give for `CO[C@H]1C[C@@H]2CC[C@@H](C)[C@@](O)(O2)C(=O)C(=O)N2CCCC[C@H]2C(=O)O[C@H]([C@H](C)C[C@@H]2CC[C@@H](OCCO)[C@H](OC)C2)CC(=O)[C@H](C)/C=C(\C)[C@@H](O)[C@@H](OC)C(=O)[C@H](C)C[C@H](C)/C=C/C=C/C=C/1C` [Everolimus, everolimus, reference compound] here?
Its value is “not able to inhibit”.

And the “tumor growth inhibition (TGI)” value (PC3 xenograft; 5 mg/kg p.o. daily, 28 days)?
The value was 133%.

For `Cc1nc2c(-c3cnc(N)nc3)nc(N3CCOCC3)nc2n1C(C)C` [VS-5584, 5-(9-isopropyl-8-methyl-2-morpholin-4-yl-9H-purin-6-yl)-pyrimidin-2-ylamine], which “maximum observed body weight loss” value ([1]; 25 mg/kg once daily, data not shown) is on record?
The value was 3.1%.

What about the “maximum observed body weight loss” value ([1]; 35 mg/kg once daily, data not shown) of the same molecule?
The value was 13.9%.

And the “peripheral blood cell counts” value ([1]; 25 and 35 mg/kg, data not shown)?
Its value is “remained within normal levels without significant changes”.

What about the “tolerability of a single dose” value ([1]; single dose up to 100 mg/kg) of the same molecule?
Its value is “well tolerated”.

And the Tmax [2]?
The Tmax was 0.9 h.

And the half-life [2]?
Its half-life is 10 h.

What about the “reduction of pAkt in tumor” value [3] of the same molecule?
Its value is 85%.

What about the “reduction of pS6 in tumor” value [3] of the same molecule?
Its value is 95%.

What about the “weight loss (mean)” value (PC3 xenograft; 11 and 25 mg/kg, day 27) of the same molecule?
Its value is 4.7%.

What about the “pAkt(S473) blocked” value [4] of the same molecule?
Its value is no less than 90%.

What about the “pS6(S240/244) blocked” value [4] of the same molecule?
Its value is no less than 90%.

Which tumor growth inhibition (NCI-N87 xenograft) does the source give for `O=c1[nH]cc(F)c(=O)[nH]1` [5-FU, 5-fluorouracil] here?
Its tumor growth inhibition is 32%.
